Residue numbers refer to the chain shown, from its start. pIC50: −log10 of the molar value. No end group written: not given here.
Assays:
DPA10103-DPB10201 = molecular target: T1, DPA10103-DPB10201 (Homo sapiens, UniProt P04440+P20036, A65V/A84D/A85E/K98E); test: Competitive MHC class II binding assay, DPA10103-DPB10201
T1 sequence (P20036 29-260): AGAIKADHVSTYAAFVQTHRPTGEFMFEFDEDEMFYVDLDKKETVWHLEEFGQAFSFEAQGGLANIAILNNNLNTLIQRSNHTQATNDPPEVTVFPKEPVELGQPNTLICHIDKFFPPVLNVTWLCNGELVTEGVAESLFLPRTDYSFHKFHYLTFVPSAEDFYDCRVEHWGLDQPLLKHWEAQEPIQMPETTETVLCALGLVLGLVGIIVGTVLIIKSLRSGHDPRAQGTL
T1 sequence (P04440 30-258 A65V/A84D/A85E/K98E): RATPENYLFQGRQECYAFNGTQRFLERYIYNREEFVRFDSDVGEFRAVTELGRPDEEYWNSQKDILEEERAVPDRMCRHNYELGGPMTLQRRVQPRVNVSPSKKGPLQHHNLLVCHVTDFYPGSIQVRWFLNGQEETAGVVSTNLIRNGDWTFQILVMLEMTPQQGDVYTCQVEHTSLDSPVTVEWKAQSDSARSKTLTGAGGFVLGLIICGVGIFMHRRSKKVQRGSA

DPA10103-DPB10401 = molecular target: T2, DPA10103-DPB10401 (Homo sapiens, UniProt P04440+P20036); test: Competitive MHC class II binding assay, DPA10103-DPB10401
T2 sequence (P20036 29-260): T1 sequence (P20036 29-260)
T2 sequence (P04440 30-258): T1 sequence (P04440 30-258 A65V/A84D/A85E/K98E) with V36A, D55A, E56A, E69K

DRB1_0101 = DRB1_0101 (Homo sapiens, UniProt P01903+P01911, A100R/D57E/F55L/F60I/F76Y/I96L/L162R/M171V/P40L/Q125E/R42F/V115G/Y59C); test: Competitive MHC class II binding assay, DRB1_0101;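 further: competition against a radiolabeled probe peptide (0.1–1 nM) for purified HLA class II protein over 2–4 days, bound counts read after antibody capture, six competitor levels across 100,000-fold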
DRB1_0405 = DRB1_0405 (Homo sapiens, UniProt P01903+P01911, A100R/A169T/D86S/F76Y/I96L/K127E/L162R/M171V/N62H/P40V/Q125Y/R42H/S133A/S149N/S66Y/V115G/V209L/W38E); test: Competitive MHC class II binding assay, DRB1_0405
DRB1_0701 = DRB1_0701 (Homo sapiens, UniProt P01903+P01911, A100R/A102G/A103Q/D57E/D86V/E43K/F76Y/K127E/L162R/M171V/P40G/Q125H/Q99D/R33Q/R42Y/R54Q/S133A/S66F/T210M/V115G/Y107V/Y59L/Y89S); test: Competitive MHC class II binding assay, DRB1_0701;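 further: displacement of a radiolabeled reference peptide from purified HLA class II protein, with complex-bound radioactivity counted after 2–4 days of incubation and six concentrations spanning a 100,000-fold range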
DRB1_0802 = DRB1_0802 (Homo sapiens, UniProt P01903+P01911, A100R/A103L/A169T/F76Y/H45Y/I96F/K41T/L162R/M171V/P40S/Q125H/Q178H/Q39Y/Q99D/R218S/R42G/S66Y/V115G/W38E); test: Competitive MHC class II binding assay, DRB1_0802
DRB1_0901 = DRB1_0901 (Homo sapiens, UniProt P01903+P01911, A100R/A103E/D57H/D86V/F55Y/F60I/F76Y/I96F/K127E/L162R/M171V/P40D/Q125H/Q99R/R33Q/R42F/S133A/S66N/T210M/V115G/W38K/Y107V/Y59G/Y89S); test: Competitive MHC class II binding assay, DRB1_0901;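 further: displacement of a radiolabeled probe peptide from purified HLA class II protein, bound counts read after two to four days incubation, six concentrations spanning 100,000-fold, unlabeled probe as reference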
DRB1_1101 = DRB1_1101 (Homo sapiens, UniProt P01903+P01911, A100R/A169T/A87E/I96F/K41T/L162R/M171V/P40S/Q125H/Q178H/Q39Y/Q99D/R42S/S66Y/T262R/V115G/W38E); test: Competitive MHC class II binding assay, DRB1_1101
DRB1_1201 = DRB1_1201 (Homo sapiens, UniProt P01903+P01911, A100R/A169T/D57E/D86V/F55L/H45Y/K41T/L162R/M171V/P40S/Q125H/Q178H/Q39Y/Q99D/R42G/S66L/T262R/V114A/V67L/W38E/Y59H/Y61H/Y89S); test: Competitive MHC class II binding assay, DRB1_1201
DRB1_1302 = DRB1_1302 (Homo sapiens, UniProt P01903+P01911, A100E/A169T/K41T/L162R/M171V/P40S/Q125H/Q178H/Q39Y/Q99D/R42S/S66N/T262R/V115G/W38E/Y61H); test: Competitive MHC class II binding assay, DRB1_1302;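 further: purified HLA class II protein incubated two to four days with a radiolabeled reference binder and test peptide at six concentrations over a 100,000-fold range, complex-bound radioactivity counted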
DRB1_1501 = DRB1_1501 (Homo sapiens, UniProt P01903+P01911); test: Competitive MHC class II binding assay, DRB1_1501
DRB3_0202 = DRB3_0202 (Homo sapiens, UniProt P01903+P79483, A212P/D57E/F66Y/L67A/R103Q/R218S/R40L/S89Y/T80R/V86D/Y55F/Y59H); test: Competitive MHC class II binding assay, DRB3_0202
DRB4_0101 = DRB4_0101 (Homo sapiens, UniProt P01903+P13762, G164S); test: Competitive MHC class II binding assay, DRB4_0101
DRB5_0101 = DRB5_0101 (Homo sapiens, UniProt P01903+Q30154); test: Competitive MHC class II binding assay, DRB5_0101
DQA10501-DQB10201 = DQA10501-DQB10201 (Homo sapiens, UniProt P01909+P01920, A45G/A70V/D89A/E106A/E77G/E98D/H199R/L107V/N214S/P84L/P87L/T103K/T109R/T172A/T60S/V78E/V99I/Y58L/Y62S/Y69I/Y79F); test: Competitive MHC class II binding assay, DQA10501-DQB10201
DQA10501-DQB10301 = DQA10501-DQB10301 (Homo sapiens, UniProt P01909+P01920); test: Competitive MHC class II binding assay, DQA10501-DQB10301
DQA10102-DQB10602 = test: Competitive MHC class II binding assay, DQA10102-DQB10602; conditions: read-out: HLA-DQA10102-DQB10602; positive binding at cutoff 1000 nM
DRB1_0301 = DRB1_0301 (Homo sapiens, UniProt P01903+P01911, A100K/A102G/A103R/A169T/F55Y/I96L/K41T/L162R/M171V/P40S/Q125H/Q178H/Q39Y/R42S/S66N/T106N/T262R/W38E/Y61H); test: Competitive MHC class II binding assay, DRB1_0301
DRB1_0401 = DRB1_0401 (Homo sapiens, UniProt P01903+P01911, A100K/A169T/F76Y/I96L/K127E/L162R/M171V/N62H/P40V/Q125Y/R42H/S133A/S149N/S66Y/V115G/V209L/W38E); test: Competitive MHC class II binding assay, DRB1_0401
DRB3_0101 = DRB3_0101 (Homo sapiens, UniProt P01903+P79483); test: Competitive MHC class II binding assay, DRB3_0101

Measured: pIC50

CC[C@H](C)[C@H](NC(=O)[C@H](CCSC)NC(=O)[C@H](CCCNC(=N)N)NC(=O)[C@H](Cc1ccccc1)NC(=O)[C@H](CCCCN)NC(=O)[C@@H](NC(=O)[C@H](CCSC)NC(=O)[C@H](CC(N)=O)NC(=O)[C@H](Cc1ccc(O)cc1)NC(=O)[C@@H](NC(=O)[C@@H](N)CCC(=O)O)[C@@H](C)CC)C(C)C)C(=O)N[C@@H](C)C(=O)NCC(=O)N[C@@H](CCC(N)=O)C(=O)N[C@@H](CCC(=O)O)C(=O)O [pep-117]
> 6.00: DPA10103-DPB10201 | DPA10103-DPB10401

CC[C@H](C)[C@H](NC(=O)CNC(=O)[C@@H](N)CCCNC(=N)N)C(=O)N[C@@H](CCC(=O)O)C(=O)N[C@@H](Cc1ccc(O)cc1)C(=O)N[C@H](C(=O)N[C@@H](CCC(N)=O)C(=O)N[C@@H](Cc1c[nH]cn1)C(=O)N[C@@H](CC(N)=O)C(=O)NCC(=O)N[C@H](C(=O)N[C@H](C(=O)N[C@@H](CCC(N)=O)C(=O)N[C@@H](CCC(=O)O)C(=O)N[C@@H](CO)C(=O)N[C@@H](Cc1ccc(O)cc1)C(=O)N[C@@H](Cc1ccc(O)cc1)C(=O)N[C@@H](CCCNC(=N)N)C(=O)N[C@@H](Cc1ccc(O)cc1)C(=O)N[C@H](C(=O)N[C@@H](C)C(=O)N[C@@H](CCCNC(=N)N)C(=O)O)C(C)C)C(C)C)C(C)C)[C@@H](C)CC [pep-123]
not listed: DRB1_0301 | DRB1_0401 | DRB3_0101
> 6.00: all other assays above

IEYIQHNGVVQESYYRYVAR [pep-049]
not listed: DRB1_0101 | DRB1_0802 | DRB4_0101
> 6.00: all other assays above

Source: patent publication US20160251403A1, “PEPTIDE COMBINATIONS AND USES THEREOF IN TREATING DUST MITE ALLERGY” (ALK-ABELLO A/S, priority 2013, published 2016)
